Earlier results in PubChem BioAssay AID1259410 (Chemical Carcinogenesis Research Information System (CCRIS), 2018).

Tested on: rodent tumor promotion studies, tumor incidence
Assay: CCRIS tumor promotion studies

In the case of `O=C([O-])/C=C/C(=O)[O-].[Fe+2]`, the outcome (Carcinogen: DIMETHYLHYDRAZINE, 540-73-8, Doses [Carcinogen]: 20 MG/KG 1/WK FOR 10 WK, Doses [Promoter]: 0, 3.5% IN DIET FOR 10 WK BEGINNING POST CARCINOGEN TREATMENT (STUDY DURATION: 20 WK), Route [Carcinogen]: SUBCUTANEOUS, Route [Promoter]: ORAL, Species: MOUSE, Strain/Sex: NMRI/MALE) is given as “colon/rectum: tumor” and the outcome (Carcinogen: DIMETHYLHYDRAZINE, 540-73-8, Doses [Carcinogen]: 20 MG/KG 1/WK FOR 10 WK, Doses [Promoter]: 0, 3.5% IN DIET FOR 10 WK CONCURRENTLY WITH CARCINOGEN TREATMENT (STUDY DURATION: 20 WK), Route [Carcinogen]: SUBCUTANEOUS, Route [Promoter]: ORAL, Species: MOUSE, Strain/Sex: NMRI/MALE) is given as “colon/rectum: tumor”.

In the case of `c1c[nH]cn1`, the outcome (Carcinogen: N-METHYL-N-NITROSOUREA, 684-93-5, Doses [Carcinogen]: 40 MG/KG ONCE, Doses [Promoter]: 1000 MG/KG OF HIGH (20%) FAT DIET BEGINNING 1 WK POST CARCINOGEN DOSE AND CONTINUING FOR DURATION OF STUDY (STUDY DURATI, Route [Carcinogen]: SUBCUTANEOUS, Route [Promoter]: ORAL, Species: RAT, Strain/Sex: SPRAGUE-DAWLEY/FEMALE) is listed as “mammary gland: tumor”.

For `Nc1ccc(Cc2ccc(N)cc2)cc1`, the outcome (Carcinogen: 2,2'-DIHYDROXY-N-NITROSODIPROPYLAMINE, 53609-64-6, Doses [Carcinogen]: 280 MG/100 G IN 0.5 ML SALINE ONCE, Doses [Promoter]: 0, 1000 PPM IN DIET FOR 19 WK (STUDY DURATION: 19 WK), Route [Carcinogen]: INTRAPERITONEAL, Route [Promoter]: ORAL, Species: RAT, Strain/Sex: WISTAR/MALE) is listed as “thyroid: tumor” and the outcome (Carcinogen: N-BIS(2-HYDROXYPROPYL)NITROSAMINE, 53609-64-6, N-ETHYL-N-HYDROXYETHYLNITROSAMINE, 13147-25-6, 3,2'-DIMETHYL-4-AMINOB, Carcinogen: N-BIS(2-HYDROXYPROPYL)NITROSAMINE, 53609-64-6, N-ETHYL-N-HYDROXYETHYLNITROSAMINE, 13147-25-6, 3,2'-DIMETHYL-4-AMINOB, Doses [Carcinogen]: 1000 MG/KG IP IN SALINE ON DAY 1 AND 4, 1500 MG/KG IG IN DISTILLED WATER ON DAY 8 AND 11, 75 MG/KG SC IN CORN OIL ON D, Doses [Carcinogen]: 1000 MG/KG IP IN SALINE ON DAY 1 AND 4, 1500 MG/KG IG IN DISTILLED WATER ON DAY 8 AND 11, 75 MG/KG SC IN CORN OIL ON D, Doses [Promoter]: 0, 0.1% IN DIET BEGINNING 1 WK POST LAST CARCINOGEN DOSE AND CONTINUING FOR 12 WK (STUDY DURATION: 16 WK), Route [Carcinogen]: INTRAPERITONEAL, GAVAGE, SUBCUTANEOUS, Route [Carcinogen]: INTRAPERITONEAL, GAVAGE, SUBCUTANEOUS, Route [Promoter]: ORAL, Species: RAT, Strain/Sex: F344/MALE) is listed as “thyroid: adenoma, adenocarcinoma”.

For `O=C(O)CCC(=O)O`, the outcome (Carcinogen: N-BUTYL-N-(4-HYDROXYBUTYL)NITROSAMINE, 3817-11-6, Doses [Carcinogen]: 0.05% IN DRINKING WATER FOR 4 WK, Doses [Promoter]: 0, 5% IN BASAL DIET BEGINNING POST CARCINOGEN TREATMENT AND CONTINUING FOR 32 WK (STUDY DURATION: 36 WK), Route [Carcinogen]: ORAL, Route [Promoter]: ORAL, Species: RAT, Strain/Sex: F344/MALE) is given as “urinary bladder: papilloma, carcinoma”.

In the case of `Oc1ccc(Cl)cc1Cc1ccccc1`, the outcome (Carcinogen: 7,12-DIMETHYLBENZ[A]ANTHRACENE, 57-97-6, Doses [Carcinogen]: 50 UG IN ACETONE ONCE, Doses [Promoter]: 3 MG IN ACETONE 3/WK FOR 51 WK (STUDY DURATION: 52 WK), Route [Carcinogen]: DERMAL, Route [Promoter]: DERMAL, Species: MOUSE, Strain/Sex: CD-1/FEMALE) is listed as “skin: papilloma”.

For `C[C@@]12C(=O)OC(=O)[C@]1(C)[C@H]1CC[C@@H]2O1`, the outcome (Carcinogen: 7,12-DIMETHYLBENZ(A)ANTHRACENE, Doses [Carcinogen]: TOP, Route [Carcinogen]: DERMAL, Route [Promoter]: DERMAL, Species: MOUSE, Strain/Sex: FEMALE) is listed as “integumentary system (skin)”.

For `CCCCN(CCCCO)N=O`, the outcome (Carcinogen: DIETHYLNITROSAMINE, 55-18-5, N-METHYLNITROSOUREA, 684-93-5, DIHYDROXY-DI-N- PROPYLNITRASAMINE, 53609-64-6, Carcinogen: DIETHYLNITROSAMINE, 55-18-5, N-METHYLNITROSOUREA, 684-93-5, DIHYDROXY-DI-N- PROPYLNITRASAMINE, 53609-64-6, Doses [Carcinogen]: 100 MG/KG/BW DEN ONCE AT BEGINNING OF STUDY THEN 20 MG/KG/BW MNU ONCE ON D 2, 5, 8 AND 11 OF STUDY FOLLOWED BY 0.1% DHPN, Doses [Promoter]: 0, 0.1% IN DRINKING WATER BEGINNING POST CARCINOGEN TREATMENT AND CONTINUING FOR DURATION OF STUDY (STUDY DURATION: 20 W, Route [Carcinogen]: INTRAPERITONEAL, INTRAPERITONEAL, ORAL, Route [Carcinogen]: INTRAPERITONEAL, INTRAPERITONEAL, ORAL, Route [Promoter]: ORAL, Species: RAT, Strain/Sex: F344/MALE) is listed as “urinary bladder: transitional cell papilloma” and the outcome (Carcinogen: N-BIS(2-HYDROXYPROPYL)NITROSAMINE, 53609-64-6, N-ETHYL-N-HYDROXYETHYLNITROSAMINE, 13147-25-6, 3,2'-DIMETHYL-4-AMINOB, Carcinogen: N-BIS(2-HYDROXYPROPYL)NITROSAMINE, 53609-64-6, N-ETHYL-N-HYDROXYETHYLNITROSAMINE, 13147-25-6, 3,2'-DIMETHYL-4-AMINOB, Doses [Carcinogen]: 1000 MG/KG IP IN SALINE ON DAY 1 AND 4, 1500 MG/KG IG IN DISTILLED WATER ON DAY 8 AND 11, 75 MG/KG SC IN CORN OIL ON D, Doses [Carcinogen]: 1000 MG/KG IP IN SALINE ON DAY 1 AND 4, 1500 MG/KG IG IN DISTILLED WATER ON DAY 8 AND 11, 75 MG/KG SC IN CORN OIL ON D, Doses [Promoter]: 0, 0.1% IN DRINKING WATER BEGINNING 1 WK POST LAST CARCINOGEN DOSE AND CONTINUING FOR 12 WK (STUDY DURATION: 16 WK), Route [Carcinogen]: INTRAPERITONEAL, GAVAGE, SUBCUTANEOUS, Route [Carcinogen]: INTRAPERITONEAL, GAVAGE, SUBCUTANEOUS, Route [Promoter]: ORAL, Species: RAT, Strain/Sex: F344/MALE) is listed as “urinary bladder: tumor”.

In the case of `C[C@]12CC[C@H]3[C@@H](CCC4=CC(=O)CC[C@@]43C)[C@@H]1CC[C@@H]2O`, the outcome (Carcinogen: DIETHYLNITROSAMINE, 55-18-5, Doses [Carcinogen]: 2.5 UG/G BW IN SALINE ONCE, Doses [Promoter]: 0, 0.5-1 MG IN PELLET IMPLANTED 1/MONTH FOR 30 WK BEGINNING 30 D POST CARCINOGEN TREATMENT. DOSING BEGAN SAME DAY OF BIL, Route [Carcinogen]: INTRAPERITIONEAL, Route [Promoter]: SUBCUTANEOUS, Species: MOUSE, Strain/Sex: B6C3F1/FEMALE) is listed as “liver: tumor”.

For `O=CC=O`, the outcome (Carcinogen: N-METHYL-N'-NITRO-N-NITROSOGUANIDINE, 70-25-7, Doses [Carcinogen]: 100 MG/L IN DRINKING WATER FOR 8 WK, Doses [Promoter]: 0, 0.5% IN DRINKING WATER BEGINNING POST LAST CARCINOGEN DOSE AND CONTINUING FOR 32 WK (STUDY DURATION: 40 WK), Route [Carcinogen]: ORAL, Route [Promoter]: ORAL, Species: RAT, Strain/Sex: WISTAR/MALE) is given as “glandular stomach (pylorus): adenocarcinoma”.

In the case of `COC(=O)/C=C/C=C/CCCCCCCCCCCCCO`, the outcome (Carcinogen: 7,12-DIMETHYLBENZ(A)ANTHRACENE, Doses [Carcinogen]: TOP, Route [Carcinogen]: DERMAL, Route [Promoter]: DERMAL, Species: MOUSE, Strain/Sex: MALE,FEMALE) is given as “integumentary system (skin)”.

In the case of `CC/C(=C(\c1ccccc1)c1ccc(OCCN(C)C)cc1)c1ccccc1`, the outcome (Carcinogen: P-DIMETHYLAMINOAZOBENZENE [60-11-7], Doses [Carcinogen]: 0.5% IN DIET FOR 28 WK (STUDY DURATION: 20 WK), Doses [Promoter]: 0, 0.025% IN DIET FOR 25 WK BEGINNING 3 WK POST FIRST CARCINOGEN DOSE (STUDY DURATION: 28 WK), Route [Carcinogen]: ORAL, Route [Promoter]: ORAL, Species: MOUSE, Strain/Sex: CF-1/MALE) is listed as “liver: hepatocellular carcinoma”.

In the case of `CC(C)C[C@H]1C(=O)N2CCC[C@H]2[C@]2(O)O[C@](NC(=O)[C@@H]3C=C4c5cccc6[nH]c(Br)c(c56)C[C@H]4N(C)C3)(C(C)C)C(=O)N12`, the outcome (Carcinogen: 3-METHYLCHOLANTHRENE, 56-49-5, Doses [Carcinogen]: 1.5 MG IN TRICAPRYLIN ONCE, Doses [Promoter]: 0, 3 MG/KG/D IN 50% ETHANOL FOR 16 CONSECUTIVE DAYS BEGINNING 2 D PRIOR TO CARCINOGEN DOSE AND AGAIN FOR 14 D BEGINNING, Route [Carcinogen]: SUBCUTANEOUS, Route [Promoter]: SUBCUTANEOUS, Species: RAT, Strain/Sex: SPRAGUE-DAWLEY/MALE) is given as “injection site: tumor” and the outcome (Carcinogen: N-METHYL-N'-NITRO-N-NITROSOGUANIDINE, 70-25-7, Doses [Carcinogen]: 40 ML OF A 50 UG/ML DEIONIZED WATER SOLUTION 1/2 D FOR 25 WK (AVERAGE TOTAL DOSE 170 MG), Doses [Promoter]: 0, 1, 2, MG/KG IN 0.1 ML/KG OLIVE OIL 1/2 D FOR 25 WK ADMINISTERED POST CARCINOGEN (STUDY DURATION: 52 WK), Doses [Promoter]: 0, 1, 2, MG/KG IN 0.1 ML/KG OLIVE OIL 1/2 D FOR 25 WK ADMINISTERED POST CARCINOGEN (STUDY DURATION: 52 WK), Route [Carcinogen]: ORAL, Route [Promoter]: SUBCUTANEOUS, Species: RAT, Strain/Sex: WISTAR/MALE) is given as “glandular stomach: adenocarcinoma”.

In the case of `C/C(=C\CO)CCC[C@H](C)CCC[C@H](C)CCCC(C)C`, the outcome (Carcinogen: 7,12-DIMETHYLBENZ[A]ANTHRACENE, 57-97-6, Doses [Carcinogen]: 100 UG ONCE, Doses [Promoter]: 0, 100 MG 2 D/WK FOR 16 WK BEGINNING 1 WK POST CARCINOGEN DOSE (STUDY DURATION: 41 WK), Route [Carcinogen]: DERMAL, Route [Promoter]: DERMAL, Species: MOUSE, Strain/Sex: ICR/FEMALE) is given as “skin: tumor”.
